Earlier results in patent US8506932B2, “Tetracyclic indole derivatives as in vivo imaging agents and having peripheralbenzodiazepine receptor affinity (PBR)” (Hammersmith Imanet Limited, priority 2005, dated 2013).

Assays:
[1] = stated as known limitation
PBR = PBR (Homo sapiens, UniProt P30536); conditions: stated as known limitation
PBR, sequence (P30536 whole entry, species assumed): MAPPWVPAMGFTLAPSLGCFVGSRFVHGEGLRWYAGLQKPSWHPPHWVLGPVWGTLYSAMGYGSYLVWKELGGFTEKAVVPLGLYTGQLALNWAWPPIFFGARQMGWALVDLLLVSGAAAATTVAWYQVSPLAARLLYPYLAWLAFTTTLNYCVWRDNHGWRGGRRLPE

Question: For `CC[C@@H](C)N([11CH3])C(=O)c1cc2ccccc2c(-c2ccccc2Cl)n1` [(R)-[11C]PK11195], which protein binding [1] is on record?
Answer: The protein binding was “high”.

Question: And the “specific to non-specific binding” value (PBR)?
Answer: The value was “low”.
